The text below walks through data of PMC11638965, “Leveraging Dual-Ligase Recruitment to Enhance Protein Degradation via a Heterotrivalent Proteolysis Targeting Chimera” (Journal of the American Chemical Society, 2024).

The structures appear in SMILES notation.

Common to all, as to assay type: cell-based
Assay [1] has as its target T1, BRD2 (Homo sapiens, UniProt P25440).
T1 construct: HiBiT, is appended to the N-terminus of endogenous BRD2, BRD3, and BRD4; endogenous in cells
Put plainly: Live cell kinetic HiBiT degradation assay, HiBiT-BRD2 HEK293 cells. The method in brief: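 HEK293 cells with CRISPR-inserted N-terminal HiBiT on endogenous BRD2 or BRD3, stably expressing LgBiT, equilibrated 3 h with Endurazine at 37 °C, then treated with threefold PROTAC dilution series. Luminescence read every 7 min for 24 h, normalized to pre-read and DMSO; Dmax as lowest signal, rate constant by one-phase exponential decay, Dmax50 from Dmax-concentration fit.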
Background: HiBiT is a short tag that completes a luciferase, so light tracks the accessible tagged protein.

The target of a further assay is T2, BRD4^Long (Homo sapiens, UniProt O60885).
T2 construct: Western blot data for BET, CRBN and VHL protein levels; endogenous in cells; host or cells: HEK293 (ATCC)
Put plainly: Western blot dose-response degradation in HEK293 cells. The following applies: HEK293 cells, 6 h, Western blot; mean ± S.E.M. of three experiments, values marked b mean ± S.D. of two. On the procedure:
(§1) HEK293 cells were obtained from ATCC. HEK293 was cultured in DMEM supplemented with 10% (v/v) fetal bovine serum (FBS), 1% […] and 1% (v/v) penicillin/streptomycin (pen/strep) at 37 °C, 5% CO2, and 95% humidity.
(§2) HEK293 cells were plated at a density of 5 × 10^5 cells per well of a six well plate a day prior to initiation of the experiment. Compounds were dissolved to a 10 mM concentrated stock solution in DMSO from which the compounds were further diluted to a working concentration range of 1 μM to 100 pM in DMEM and was subsequently added to cells at the initiation of the experiment. An additional vehicle control was added to cells alongside compound treatments. Cells were left to incubate with compound for 6 h at 37 °C, 5% CO2, and 95% humidity. Cells were then subsequently washed twice with PBS before being harvested in RIPA buffer supplemented with protease inhibitor cocktail and Benzonase Nuclease before being store at −20 °C.
(§3) Protein concentration was determined using the BCA assay. Samples were then prepared in LDS buffer containing 5% 1 M DTT and subsequently loaded onto NuPAGE 4–12% Bis-Tris Midi gels, followed by the transfer of the proteins onto nitrocellulose membranes. The membranes were blocked for 1 h prior to incubation with the primary antibodies using 5% Milk TBST. Membranes were incubated at 4 °C in either BRD4(Ab128874), BRD3(Ab50818), BRD2(Ab139690), VHL(CST#68547) and CRBN(CST#71810) primary antibody overnight. Following overnight incubation, the membranes were incubated with complementary IRDye 800CW secondary antibody and a hFAB Rhodamine Anti-Tubulin Primary Antibody (loading control) for 1 h and then imaged with a Bio-Rad imager. All Western blots were analyzed for band intensities using Image Lab (Bio-Rad). The data extracted from these blots were then plotted and analyzed using Prism (v. 10.2.2, GraphPad). Linear regression curve fitting was used to calculate pDC50 values. The standard deviation of the pDC50 was calculated for all compounds that had two independent repeats and the standard error of the mean calculated for all compounds that had three independent repeats. All Western blotting figures were developed in Adobe illustrator.
A general note: In western blotting, separated proteins are transferred to a membrane and probed.

A further assay addresses T3, BRD3 (Homo sapiens, UniProt Q15059).
T3 construct: HiBiT, is appended to the N-terminus of endogenous BRD2, BRD3, and BRD4; endogenous in cells
The description is as above. The following applies: 6 h, mean ± S.E.M. of three experiments, values marked b mean ± S.D. of two. The protocol:
as §1, §2, §3

Assay [2] addresses T1, BRD2. The description is as above. The following applies: 6 h, mean ± S.E.M. of three experiments, values marked b mean ± S.D. of two. The protocol:
as §1, §2, §3

Another assay addresses T4, BRD4^Short (Homo sapiens, UniProt O60885).
T4 construct: Western blot data for BET, CRBN and VHL protein levels; endogenous in cells; host or cells: HEK293 (ATCC)
The assay is described as above. Particulars: 6 h, mean ± S.E.M. of three experiments, values marked b mean ± S.D. of two. On the procedure: as §1, §2, §3

The next assay has as its target CRBN (Homo sapiens, UniProt Q96SW2). The description is as above. The arrangement: Western blot data for BET, CRBN and VHL protein levels; endogenous in cells; host or cells: HEK293 (ATCC). Particulars: HEK293 cells, 6 h, Western blot; mean ± S.E.M. of three experiments, values marked b mean ± S.D. of two. On the procedure: as §1, §2, §3

T1 sequence (P25440 whole entry): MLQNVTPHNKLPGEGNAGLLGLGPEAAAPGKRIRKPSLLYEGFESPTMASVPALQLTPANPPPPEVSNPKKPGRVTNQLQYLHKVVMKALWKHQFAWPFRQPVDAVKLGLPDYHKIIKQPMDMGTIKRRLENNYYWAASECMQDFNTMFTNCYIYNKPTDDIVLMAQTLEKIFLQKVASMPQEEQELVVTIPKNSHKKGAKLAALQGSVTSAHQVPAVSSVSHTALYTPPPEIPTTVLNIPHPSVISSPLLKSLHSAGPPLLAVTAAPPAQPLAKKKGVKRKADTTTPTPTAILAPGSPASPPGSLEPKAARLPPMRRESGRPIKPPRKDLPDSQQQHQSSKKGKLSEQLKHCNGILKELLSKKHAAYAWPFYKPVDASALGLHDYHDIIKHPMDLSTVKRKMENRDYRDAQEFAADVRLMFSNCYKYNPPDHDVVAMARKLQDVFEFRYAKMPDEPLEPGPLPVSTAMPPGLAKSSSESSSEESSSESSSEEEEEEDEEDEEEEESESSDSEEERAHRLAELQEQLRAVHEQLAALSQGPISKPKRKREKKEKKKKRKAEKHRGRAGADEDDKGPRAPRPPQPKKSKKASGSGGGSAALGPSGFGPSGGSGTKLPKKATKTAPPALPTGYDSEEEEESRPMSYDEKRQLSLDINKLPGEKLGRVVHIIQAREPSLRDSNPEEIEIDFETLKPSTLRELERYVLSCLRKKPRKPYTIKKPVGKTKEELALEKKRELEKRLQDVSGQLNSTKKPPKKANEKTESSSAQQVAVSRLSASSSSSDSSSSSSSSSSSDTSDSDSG
CRBN, sequence (Q96SW2 whole entry): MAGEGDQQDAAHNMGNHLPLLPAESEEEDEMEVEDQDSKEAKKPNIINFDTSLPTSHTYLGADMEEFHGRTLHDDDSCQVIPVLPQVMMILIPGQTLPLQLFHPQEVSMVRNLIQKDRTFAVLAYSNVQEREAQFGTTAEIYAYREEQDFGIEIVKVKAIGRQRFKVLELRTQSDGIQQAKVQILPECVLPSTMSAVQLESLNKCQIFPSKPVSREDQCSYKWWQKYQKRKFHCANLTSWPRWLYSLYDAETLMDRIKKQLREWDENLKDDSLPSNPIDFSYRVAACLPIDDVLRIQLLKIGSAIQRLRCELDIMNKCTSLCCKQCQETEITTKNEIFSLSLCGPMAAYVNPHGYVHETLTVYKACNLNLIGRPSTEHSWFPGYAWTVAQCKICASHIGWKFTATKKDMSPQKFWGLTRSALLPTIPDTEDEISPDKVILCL
T3 sequence (Q15059 whole entry): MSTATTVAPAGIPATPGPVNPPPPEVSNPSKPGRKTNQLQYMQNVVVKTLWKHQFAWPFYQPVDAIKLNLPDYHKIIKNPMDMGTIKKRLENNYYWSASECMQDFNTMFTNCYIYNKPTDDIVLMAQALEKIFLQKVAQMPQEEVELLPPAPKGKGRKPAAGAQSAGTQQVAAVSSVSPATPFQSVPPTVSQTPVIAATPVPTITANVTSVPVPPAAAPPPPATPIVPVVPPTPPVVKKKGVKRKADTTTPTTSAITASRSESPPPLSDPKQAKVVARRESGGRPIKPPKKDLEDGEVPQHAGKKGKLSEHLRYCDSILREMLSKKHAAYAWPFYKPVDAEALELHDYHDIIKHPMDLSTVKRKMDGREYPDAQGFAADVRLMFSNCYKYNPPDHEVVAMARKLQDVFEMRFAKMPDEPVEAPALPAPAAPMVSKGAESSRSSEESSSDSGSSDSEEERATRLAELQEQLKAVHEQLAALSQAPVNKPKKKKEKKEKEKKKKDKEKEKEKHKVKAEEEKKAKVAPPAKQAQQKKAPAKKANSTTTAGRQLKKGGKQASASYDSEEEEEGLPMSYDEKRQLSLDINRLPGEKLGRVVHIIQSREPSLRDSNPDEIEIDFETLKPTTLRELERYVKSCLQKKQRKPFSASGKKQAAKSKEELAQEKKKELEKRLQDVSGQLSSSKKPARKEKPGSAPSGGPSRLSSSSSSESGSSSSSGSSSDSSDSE

Take `Cc1ncsc1-c1ccc(CNC(=O)[C@@H]2C[C@@H](O)CN2C(=O)[C@@H](NC(=O)COCC(C)(COCCOCCNc2cc3c(cc2F)C(=O)N(C2CCC(=O)NC2=O)C3=O)COCCOCCOCCOC(=O)C[C@@H]2N=C(c3ccc(Cl)cc3)c3c(sc(C)c3C)-n3c(C)nnc32)C(C)(C)C)cc1` (mixture of isomers) [AB3126 (29), (17S)-11-((2-(2-((2-(2,6-dioxopiperidin-3-yl)-6-fluoro-1,3-dioxoisoindolin-5-yl)amino)ethoxy)ethoxy)methyl)-17-((2S,4R)-4-hydroxy-2-((4-(4-methylthiazol-5-yl)benzyl)carbamoyl)pyrrolidine-1-carbonyl)-11,18,18-trimethyl-15-oxo-3,6,9,13-tetraoxa-16-azanonadecyl 2-((S)-4-(4-chlorophenyl)-2,3,9-trimethyl-6H-thieno[3,2-f][1,2,4]triazolo[4,3-a][1,4]diazepin-6-yl)acetate]: the DC50 was 18 nM at BRD2 [1] (HiBiT-BRD2 CRISPR knock-in HEK293 cells, live cell kinetic degradation, 24 h, read-out: Dmax 50 BRD2); 5 ± 5.3 nM on BRD4^Long; 6.6 ± 0.3 nM at BRD3; 33 ± 34 nM at BRD2 [2]; 5.3 ± 5.5 nM at BRD4^Short; 150 ± 190 nM on CRBN. Further, the “λmax BRD2 (degradation rate)” value at BRD2 [1] (HiBiT-BRD2 knock-in HEK293 cells) came out at 2.35 h⁻¹.
